Experimental data: US9744164B2, “Neuroprotective polyphenol analogs” (Salk Institute for Biological Studies, priority 2011, dated 2017)

What was measured:
PC12 cells = test: glucose starvation assay; format: cell-based; settings: PC12 cells starved for glucose, MTT 24 hr
Procedure: FIG. 5C—PC12 cells were glucose-deprived then were incubates in the absence or presence of Baicalein. Cell viability was determined 24 hr later using the MTT assay. […] When these cells are starved for glucose, there is approximately 70% maximal survival in the presence of NGF. Baicalein promotes over 80% survival (FIG. 5C).

[1] = system: embolic strokes in rabbits; test: rabbit small clot embolic stroke model (RSCEM); format: in vivo
Excerpt: The ability of polyphenol analogs to treat, prevent and/or mitigate one or more symptoms of stroke can also be evaluated in in vivo assays. Such assays are known in the art and find use. One applicable in vivo screening assay is the rabbit clot embolic stroke model, discussed, e.g., in Lapchak, et al., Stroke (2002) 33(9):2279-84 and Lapchak, Exp Neurol. (2007) 205(2):407-13. The rabbit small clot embolic stroke model (RSCEM) and rabbit large clot embolic stroke model (RLCEM) can be used to determine the potential neuroprotective properties and safety profile of test polyphenol analogs after an embolic stroke. Rabbits are embolized by injecting small blood clots (RSCEM) or large blood clots (RLCEM) into the cerebral circulation. Behavioral analysis is conducted 24 hours later, allowing for determination of the effective stroke dose (ES50) or clot amount (milligrams) that produces severe neurological deficits in 50% of rabbits. A drug is considered neuroprotective if it increases the ES50 compared with the vehicle-treated control group.
Either vehicle or bolus injections of chlorogenic acid were administered intravenously over 1 minute starting 5 minutes following embolization using a suspension of small-sized blood clots. In this series of studies, CGA was administered at 50 mg/kg. Behavioral analysis was conducted at 24 hours following treatment, which allowed for the construction of quantal dose-response analysis curves. […] For the superimposed graphs, normal animals are plotted on the y-axis at 0% and abnormal animals are plotted at 100%. […] Moreover, CGA increased the P50 value (the clot dose that produces abnormality in 50% of a treatment group) compared to vehicle control. For a detailed discussion of the methods used to fit the quantal data to a sigmoidal curve, see Zivin and Waud. The pharmacology of chlorogenic acid in the rabbit small clot embolic stroke model (RSCEM) has been published (Lapchak, Exp Neurol. 2007 205(2):407-13). In the manuscript, it is shown that CGA has a therapeutic window of 60 minutes in the RSCEM. FIG. 2 presents the therapeutic window data.
Using the RSCEM assay described above for CGA, the effects of Fisetin (50 mg/kg) on behavioral outcome measured 24 hours following embolization is tested.

[2] = system: embolic strokes in rabbits; settings: RSCEM, as published in the manuscript; cited from earlier work
Akita mouse = settings: Maher et al. 2011; cited from earlier work

| Structure (SMILES) | survival (PC12 cells) | behavior when administered 1 hour following embolization ([1]; 1 hour following embolization) | behavior when administered 3 hours following embolization ([1]; 3 hours following embolization) | therapeutic window [2] [min] | elevation of blood sugar (Akita mouse) | kidney hypertrophy and albuminuria (Akita mouse) |
| --- | --- | --- | --- | --- | --- | --- |
| O=c1cc(-c2ccccc2)oc2cc(O)c(O)c(O)c12 [Baicalein, 5,6,7-trihydroxyflavone] | over 80% | effective at improving behavior | neither improve behavior | ≥ 60 | – | – |
| O=c1c(O)c(-c2ccc(O)c(O)c2)oc2cc(O)ccc12 [Fisetin, 3,7,3′,4′-tetrahydroxy flavone] | – | – | – | – | no effect | reduced |
